≈ marks a conversion by molar mass, not a printed value.

The subject of assay [1] is E. coli. Put plainly: Bacterial susceptibility testing, MIC by broth microdilution (CLSI). Format: cell-based. The following applies: Escherichia coli, cation adjusted Mueller-Hinton Broth, 35° C., 18-24 h. As for the experimental part:
(§1) Minimal inhibitory concentrations (MIC) were determined by the broth microdilution method in accordance with the Clinical and Laboratory Standards Institute (CLSI) guidelines. In brief, organism suspensions were adjusted to a 0.5 McFarland standard to yield a final inoculum between 3×10^5 and 7×10^5 colony-forming units (CFU)/mL. Drug dilutions and inocula were made in sterile, cation adjusted Mueller-Hinton Broth (Beckton Dickinson). An inoculum volume of 100 μL was added to wells containing 100 μL of broth with 2-fold serial dilutions of drug. All inoculated microdilution trays were incubated in ambient air at 35° C. for 18-24 h. Following incubation, the lowest concentration of the drug that prevented visible growth (OD600 nm<0.05) was recorded as the MIC. Performance of the assay was monitored by the use of laboratory quality-control strains and levofloxacin, a compound with a defined MIC spectrum, in accordance with CLSI guidelines.
A general note: In broth dilution the organism is exposed to a series of concentrations in liquid medium.

Assay [2] deals with S. aureus. The assay is described as above. As to conditions: Staphylococcus aureus, cation adjusted Mueller-Hinton Broth, 35° C., 18-24 h. It counts as cell-based. The protocol: as §1

`CS(=O)(=O)C(Cc1ccc(C#Cc2ccc(CN3CCOCC3)cc2)cc1)c1occc(=O)c1O` (stereo not drawn) [Compound 1, 3-hydroxy-2-(1-(methylsulfonyl)-2-(4-((4-(morpholinomethyl)phenyl)ethynyl)phenyl)ethyl)-4H-pyran-4-one]: the MIC (usually the least concentration at which growth counts as inhibited) in assay [1] is above 32 µg/mL.
On to `O=C(Nc1ccc(C#CC#Cc2ccccc2)cc1)c1occc(=O)c1O` [Compound 2, 3-hydroxy-4-oxo-N-(4-(phenylbuta-1,3-diyn-1-yl)phenyl)-4H-pyran-2-carboxamide], for which the MIC in assay [1] is above 32 µg/mL.
With `CS(=O)(=O)NCC(Cc1ccc(-c2ccccc2)cc1)c1occc(=O)c1O` (stereo not drawn) [Compound 3, N-(3-([1,1′-biphenyl]-4-yl)-2-(3-hydroxy-4-oxo-4H-pyran-2-yl)propyl)methanesulfonamide], the MIC in assay [1] and in assay [2] was above 32 µg/mL throughout.
Consider `CS(=O)(=O)CC(Cc1ccc(-c2ccccc2)cc1)c1occc(=O)c1O` (stereo not drawn) [Compound 4, 2-(1-([1,1′-biphenyl]-4-yl)-3-(methylsulfonyl)propan-2-yl)-3-hydroxy-4H-pyran-4-one], for which the MIC in assay [1] and in assay [2] was above 32 µg/mL each time.
Take `O=c1ccoc(C(CO)Cc2ccc(-c3ccccc3)cc2)c1O` (stereo not drawn) [Compound 5, 2-(1-([1,1′-biphenyl]-4-yl)-3-hydroxypropan-2-yl)-3-hydroxy-4H-pyran-4-one]: the MIC in assay [1] and in assay [2] was above 32 µg/mL each time.
Consider `NCC(Cc1ccc(-c2ccccc2)cc1)c1occc(=O)c1O` (stereo not drawn) [Compound 6, 2-(1-([1,1′-biphenyl]-4-yl)-3-aminopropan-2-yl)-3-hydroxy-4H-pyran-4-one], for which the MIC in assay [1] and in assay [2] was 8 µg/mL (≈ 24.9 µM) each time.
With `O=c1ccoc(CN(CCO)c2ccc(-c3ccccc3)cc2)c1O` [Compound 7, 2-(([1,1′-biphenyl]-4-yl(2-hydroxyethyl)amino)methyl)-3-hydroxy-4H-pyran-4-one], the MIC in assay [1] and in assay [2] was above 32 µg/mL throughout.

Values taken from patent US11021471B2, “Antibacterial compounds” (FORGE THERAPEUTICS, INC., priority 2017, dated 2021).
